Assays:
Type in all cases: in vivo
Barnyardgrass = test: Pre-emergent herbicidal activity (Table A); conditions: Echinochloa crus-galli, pre-emergence, Bygr, 11.2 kg/ha, 10-14 days, read-out: herbicidal rating (% inhibition)
Outline: (§1)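 Percent inhibition per species, scored on a rating scale, after pre-emergent soil incorporation: test compound in acetone or water carrier mixed into cover soil, layered over seeded topsoil or vegetative propagules.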

Cocklebur = test: Pre-emergent herbicidal activity (Table A); conditions: Xanthium strumarium, pre-emergence, Cobu, 11.2 kg/ha, 10-14 days, read-out: herbicidal rating (% inhibition)
Outline: as §1

Downy Brome = test: Pre-emergent herbicidal activity (Table A); conditions: Bromus tectorum, pre-emergence, Dobr, 11.2 kg/ha, 10-14 days, read-out: herbicidal rating (% inhibition)
Outline: as §1

Morningglory = test: Pre-emergent herbicidal activity (Table A); conditions: Ipomoea, pre-emergence, Mogl, 11.2 kg/ha, 10-14 days, read-out: herbicidal rating (% inhibition)
Outline: as §1

Velvetleaf = test: Pre-emergent herbicidal activity (Table A); conditions: Abutilon theophrasti, pre-emergence, Vele, 11.2 kg/ha, 10-14 days, read-out: herbicidal rating (% inhibition)
Outline: as §1

Yellow Nutsedge = test: Pre-emergent herbicidal activity (Table A); conditions: Cyperus, pre-emergence, Yens, 11.2 kg/ha, 10-14 days, read-out: herbicidal rating (% inhibition)
Outline: as §1

Bygr = test: plant injury after spraying emerged plants (Table D); design: scale not given here
Source text: (§2) Topsoil (silt loam) is sieved through a screen having 1.27 cm openings. […] This mixture is steam sterilized and then placed in aluminum pans 6.985 cm deep having ten holes in the bottom each 0.635 cm in diameter. The soil mixture is compacted to a depth of 1.27 cm. from the top of the pan. A predetermined number of seeds of each of several dicotyledonous and monocotyledonous annual plant species and/or vegetative propagules for the perennial plant species are placed on the soil and pressed into the soil surface. The seeds and/or vegetative propagules are covered with 1.27 cm of a mixture of 50% topsoil and 50% of a mixture of Canadian sphagnum peat moss, vermiculite and a wetting agent. The pans are then placed on a capillary mat on a greenhouse bench and subirrigated as needed.
(§3) In the following Table D the legends used to identify the plant species are the same as those used in the preceding Table B.

Grft = test: as above; design: scale not given here
Source text: as §2, §3

Grso = test: as above; design: scale not given here
Source text: as §2, §3

Lacg = test: as above; design: scale not given here
Source text: as §2, §3

Mogl = test: as above; design: scale not given here
Source text: as §2, §3

Prmi = test: as above; design: scale not given here
Source text: as §2, §3

Rice = test: as above; design: scale not given here
Source text: as §2, §3

Sobe = test: as above; design: scale not given here
Source text: as §2, §3

Whez = test: as above; design: scale not given here
Source text: as §2, §3

Dobr = test: as above
Source text: Topsoil (silt loam) is sieved through a screen having 1.27 cm openings. In some of the tests the soil was mixed with fertilizer (1225 g/cu. m of 12/5/9 containing isobutylidene diurea), while in other tests the fertilizer was omitted. This mixture is steam sterilized and then placed in aluminum pans 6.985 cm deep having ten holes in the bottom each 0.635 cm in diameter. The soil mixture is compacted to a depth of 1.27 cm. from the top of the pan. A predetermined number of seeds of each of several dicotyledonous and monocotyledonous annual plant species and/or vegetative propagules for the perennial plant species are placed on the soil and pressed into the soil surface. The seeds and/or vegetative propagules are covered with 1.27 cm of a mixture of 50% topsoil and 50% of a mixture of Canadian sphagnum peat moss, vermiculite and a wetting agent. The pans are then placed on a capillary mat on a greenhouse bench and subirrigated as needed. After the plants reach the desired stage (9 to 14 days, 1 to 3 true leaf stage), each pan (except the control pans) is removed to a spraying chamber and sprayed by means of an atomizer, operating at a spray pressure of 170.3 kPa ([…]) at the application rates noted in Table D. In the spray solution is an amount of an emulsifying agent mixture (35% butylamine salt of dodecylbenzenesulfonic acid and 65% tall oil condensed with ethylene oxide in the ratio of 11 mols of ethylene oxide/mol of tall oil) to give a spray solution or suspension. The spray solution or suspension contains a sufficient amount of the candidate chemical in order to give application rates of the active ingredient corresponding to those shown in Table D below while applying a total amount of solution or suspension equivalent to 1870 L/Ha (200 gallons/acre). The pans are returned to the greenhouse and watered as before and the injury to the plants as compared to the control pans is observed at approximately 10-14 days (usually 11 days).
as §3

COC(=O)c1c(OC)nc(C(F)(F)F)c(C(=O)NCCCBr)c1CC(C)C [Compound 97, 3-pyridinecarboxylic acid, 5-[[(3-bromopropyl)amino)carbonyl]-2-methoxy-4-(2-methylpropyl)-6-(trifluoromethyl)-, methyl ester]
2: plant injury rating, Lacg (Lacg; 1.1210 kg/ha)
0: plant injury rating, Bygr (Bygr; 0.0701 kg/ha) | plant injury rating, Bygr (Bygr; 0.2803 kg/ha) | plant injury rating, Bygr (Bygr; 1.1210 kg/ha) | plant injury rating, Bygr (Bygr; 5.6050 kg/ha) | plant injury rating, Grft (Grft; 0.0701 kg/ha) | plant injury rating, Grft (Grft; 0.2803 kg/ha) | plant injury rating, Grft (Grft; 1.1210 kg/ha) | plant injury rating, Grft (Grft; 5.6050 kg/ha) | plant injury rating, Grso (Grso; 0.0701 kg/ha) | plant injury rating, Grso (Grso; 0.2803 kg/ha) | plant injury rating, Grso (Grso; 1.1210 kg/ha) | plant injury rating, Grso (Grso; 5.6050 kg/ha) | plant injury rating, Lacg (Lacg; 0.0701 kg/ha) | plant injury rating, Lacg (Lacg; 0.2803 kg/ha) | plant injury rating, Lacg (Lacg; 5.6050 kg/ha) | plant injury rating, Mogl (Mogl; 0.0701 kg/ha) | plant injury rating, Mogl (Mogl; 0.2803 kg/ha) | plant injury rating, Mogl (Mogl; 1.1210 kg/ha) | plant injury rating, Mogl (Mogl; 5.6050 kg/ha) | plant injury rating, Prmi (Prmi; 0.0701 kg/ha) | plant injury rating, Prmi (Prmi; 0.2803 kg/ha) | plant injury rating, Prmi (Prmi; 1.1210 kg/ha) | plant injury rating, Prmi (Prmi; 5.6050 kg/ha) | plant injury rating, Rice (Rice; 0.0701 kg/ha) | plant injury rating, Rice (Rice; 0.2803 kg/ha) | plant injury rating, Rice (Rice; 1.1210 kg/ha) | plant injury rating, Rice (Rice; 5.6050 kg/ha) | plant injury rating, Sobe (Sobe; 0.0701 kg/ha) | plant injury rating, Sobe (Sobe; 0.2803 kg/ha) | plant injury rating, Sobe (Sobe; 1.1210 kg/ha) | plant injury rating, Sobe (Sobe; 5.6050 kg/ha) | plant injury rating, Whez (Whez; 0.0701 kg/ha) | plant injury rating, Whez (Whez; 0.2803 kg/ha) | plant injury rating, Whez (Whez; 1.1210 kg/ha) | plant injury rating, Whez (Whez; 5.6050 kg/ha) | plant injury rating, Dobr (Dobr; 0.0701 kg/ha) | plant injury rating, Dobr (Dobr; 0.2803 kg/ha) | plant injury rating, Dobr (Dobr; 1.1210 kg/ha) | plant injury rating, Dobr (Dobr; 5.6050 kg/ha)
50 to 74%: inhibition at 11200 g/ha (Downy Brome) | inhibition at 11200 g/ha (Morningglory) | inhibition at 11200 g/ha (Velvetleaf)
0 to 24%: inhibition at 11200 g/ha (Cocklebur) | inhibition at 11200 g/ha (Yellow Nutsedge)
75 to 100%: inhibition at 11200 g/ha (Barnyardgrass)
